Measured values taken from patent US8252737B2, “Antimicrobial peptides and methods of use” (priority 2004, dated 2012).
In brackets after ≈: the same amount, converted by molar mass. Read-outs that look alike come from different tables or passages of the source. Square brackets hold non-standard residues; d marks the D form. Peptide text beside a SMILES is read from it.

Columns and labels:
human erythrocytes = assay: Hemolytic activity (MHC), Protocol A, 12 hours; conditions: for minimal hemolytic concentration (MHC): incubation for 12 hours at 37° C. (Tables 7 and 8)
Experimental: Measurement of Hemolytic Activity—Protocol A: Peptide samples were added to 1% human erythrocytes in phosphate buffered saline (0.08M NaCl; 0.043M Na2PO4; 0.011M KH2PO4) and reactions were incubated at 37° C. for 12 hours in microtiter plates. Peptide samples were diluted 2 fold in order to determine the concentration that produced no hemolysis. […] Hemoglobin release was determined spectrophotometrically at 562 nm. The hemolytic titer was the highest 2-fold dilution of the peptide that still caused release of hemoglobin from erythrocytes. The control for no release of hemoglobin was a sample of 1% erythrocytes without any peptide added. […] Peptide samples were diluted 2 fold in order to determine the concentration that produced no hemolysis. […] Hemoglobin release was determined spectrophotometrically at 570 nm. The hemolytic titer was the highest 2-fold dilution of the peptide that still caused release of hemoglobin from erythrocytes. The control for no release of hemoglobin was a sample of 1% erythrocytes without any peptide added.

[1] = Circular dichroism spectroscopy of helical structure (benign buffer and 50% TFE); type: physicochemical
Experimental: To determine the secondary structure of peptides in different environments, circular dichroism (CD) spectra of the peptide analogs were measured under physiologically related pH and ionic strength (100 mM KCl, 50 mM aq. PO4, pH 7 referred to as benign conditions) and also in 50% TFE to mimic the hydrophobic environment of the membrane. […] On the non-polar face, the native L-Val residue was critical in maintaining α-helical structure. […] Even the substitution with L-Ala, which is known to have the highest α-helical propensity of all 20 amino acids (34), could not stabilize the α-helical structure. […] It is noteworthy that, on the non-polar face, the magnitude of the helical content of L-peptides in benign buffer was related to the hydrophobicity of the substituting amino acids, i.e., NLL>NVL>NAL>NSL, NKL, again showing the importance of hydrophobicity on the non-polar face in maintaining the α-helical structure. […] However, whether L- or D-substitutions were made on the non-polar face, high helical structure could be induced by the hydrophobic environment of 50% TFE, a mimic of the membrane's hydrophobicity and α-helix inducing ability (Table 3).
To determine the secondary structure of the D-enantiomeric peptides in different environments, CD spectra of the peptide analogs were measured under benign conditions (100 mM KCl, 50 mM KH2PO4/K2HPO4, pH 7.4, referred to as KP buffer) and also in 50% trifluoroethanol (TFE) to mimic the hydrophobic environment of the membrane. […] However, in the presence of 50% TFE, all three L-peptides were fully folded α-helical structures with similar ellipticities and helicity (Table 4).
Characterization of Helical Structure—The mean residue molar ellipticities of peptides were determined by circular dichroism (CD) spectroscopy, using a Jasco J-720 spectropolarimeter (Jasco, Easton, Md.), at 25° C. under benign conditions (50 mM KH2PO4/K2HPO4/100 mM KCl, pH 7), as well as in the presence of an α-helix inducing solvent, 2,2,2-trifluoroethanol (TFE) (50 mM KH2PO4/K2HPO4/100 mM KCl, pH 7 buffer/50% TFE). A 10-fold dilution of a ˜500 μM stock solution of the peptide analogs was loaded into a 0.02 cm fused silica cell and its ellipticity scanned from 190 to 250 nm. The values of molar ellipticities of the peptide analogs at a wavelength of 222 nm were used to estimate the relative α-helicity of the peptides.

gram-negative bacteria = assay: MIC, microtiter dilution, Gram-negative bacteria (geometric mean of 6 strains); type: cell-based; conditions: for MIC (μg/ml) Gram-negative: geometric mean MIC, Table 9
Experimental: The geometric mean MIC values from 6 microbial strains in this table were calculated to provide an overall evaluation of antimicrobial activity against gram-negative bacteria.
In Table 11, geometric mean MIC was calculated to provide an overall view of antimicrobial activity of the peptides against Gram-negative bacteria and was also used to calculate the therapeutic index.
Measurement of Antimicrobial Activity—Minimal inhibitory concentrations (MICs) were determined using a standard microtiter dilution method in LB (Luria-Bertani) no-salt medium (10 g of tryptone and 5 g of yeast extract per liter). Briefly, cells were grown overnight at 37° C. in LB and diluted in the same medium. […] Plates were incubated at 37° C. for 24 hours and MICs determined as the lowest peptide concentration that inhibited growth. Alternatively, minimal inhibitory concentrations were determined using a standard microtiter dilution method in a Mueller-Hinton (MH) medium. Briefly, cells were grown overnight at 37° C. in MH broth and diluted in the same medium. […] Plates were incubated at 37° C. for 24 hours and MICs determined as the lowest peptide concentration that inhibited growth. However, for MIC determination of Pseudomonas aeruginosa clinical isolates, brain heart infusion (BH1) medium was used instead of MH broth. In addition, the bacteria were diluted to a final inoculum of 1×10^6 colony-forming units/ml.

[2] = minimal hemolytic concentration on human red blood cells (hRBC), Table 9
[3] = 25° C., relative to NAL in 50% TFE
[4] = 25° C., benign buffer diluted 1:1 (v/v) with TFE
[5] = 25° C., benign buffer, relative to NAL in 50% TFE
[6] = 25° C., benign buffer (100 mM KCl, 50 mM PO4 pH 7.0)

## CC[C@H](C)[C@H](NC(=O)[C@H](C)NC(=O)[C@H](CCCCN)NC(=O)[C@H](CC(C)C)NC(=O)[C@H](C)NC(=O)[C@@H](NC(=O)[C@H](Cc1c[nH]cn1)NC(=O)[C@H](CC(C)C)NC(=O)[C@@H](NC(=O)[C@@H](NC(=O)[C@H](CCCCN)NC(=O)[C@H](C)NC(=O)[C@H](C)NC(=O)[C@H](CO)NC(=O)[C@H](CCCCN)NC(=O)[C@H](Cc1ccccc1)NC(=O)[C@@H](NC(=O)[C@H](CCCCN)NC(=O)[C@H](CC(C)C)NC(=O)[C@H](Cc1ccccc1)NC(=O)[C@H](CO)NC(=O)[C@H](CCCCN)NC(=O)[C@H](Cc1c[nH]c2ccccc12)NC(=O)[C@H](CCCCN)NC(C)=O)[C@@H](C)O)[C@@H](C)O)C(C)C)[C@@H](C)O)C(=O)N[C@@H](CO)C(=O)N[C@@H](CO)C(N)=O [NAL]
Human erythrocytes
  minimal hemolytic concentration (MHC): 31.2 µg/mL
Human erythrocytes; [2]
  MHC: 31.2 µg/mL
[1]; [3]
  % helix 50% TFE: 100%
[1]; [4]
  [θ]222 50% TFE: −28,950 deg · cm^2 · dmol^−1
[1]; [5]
  % helix Benign: 12%
gram-negative bacteria
  MIC (μg/ml) Gram-negative: 3.8 µg/mL (≈ 1.3 µM)

## CC[C@H](C)[C@H](NC(=O)[C@H](C)NC(=O)[C@H](CCCCN)NC(=O)[C@H](CC(C)C)NC(=O)[C@H](C)NC(=O)[C@@H](NC(=O)[C@H](Cc1c[nH]cn1)NC(=O)[C@H](CC(C)C)NC(=O)[C@@H](NC(=O)[C@@H](NC(=O)[C@H](CCCCN)NC(=O)[C@@H](CO)NC(=O)[C@H](C)NC(=O)[C@H](CO)NC(=O)[C@H](CCCCN)NC(=O)[C@H](Cc1ccccc1)NC(=O)[C@@H](NC(=O)[C@H](CCCCN)NC(=O)[C@H](CC(C)C)NC(=O)[C@H](Cc1ccccc1)NC(=O)[C@H](CO)NC(=O)[C@H](CCCCN)NC(=O)[C@H](Cc1c[nH]c2ccccc12)NC(=O)[C@H](CCCCN)NC(C)=O)[C@@H](C)O)[C@@H](C)O)C(C)C)[C@@H](C)O)C(=O)N[C@@H](CO)C(=O)N[C@@H](CO)C(N)=O [NSD] (Ac-KWKSFLKTFKSA[dS]KTVLHTALKAISS-NH2)
Human erythrocytes
  MHC: >250.0 µg/mL
[1]; [3]
  % helix 50% TFE: 77%
[1]; [6]
  [θ]222 Benign: −1,700 deg · cm^2 · dmol^−1
[1]; [4]
  [θ]222 50% TFE: −22,200 deg · cm^2 · dmol^−1
[1]; [5]
  % helix Benign: 6%
gram-negative bacteria
  MIC (μg/ml) Gram-negative: 6.3 µg/mL (≈ 2.14 µM)

## CC[C@H](C)[C@H](NC(=O)[C@H](C)NC(=O)[C@H](CCCCN)NC(=O)[C@H](CC(C)C)NC(=O)[C@H](C)NC(=O)[C@@H](NC(=O)[C@H](Cc1c[nH]cn1)NC(=O)[C@H](CC(C)C)NC(=O)[C@@H](NC(=O)[C@@H](NC(=O)[C@H](CCCCN)NC(=O)[C@@H](NC(=O)[C@H](C)NC(=O)[C@@H](C)NC(=O)[C@H](CCCCN)NC(=O)[C@H](Cc1ccccc1)NC(=O)[C@@H](NC(=O)[C@H](CCCCN)NC(=O)[C@H](CC(C)C)NC(=O)[C@H](Cc1ccccc1)NC(=O)[C@H](CO)NC(=O)[C@H](CCCCN)NC(=O)[C@H](Cc1c[nH]c2ccccc12)NC(=O)[C@H](CCCCN)NC(C)=O)[C@@H](C)O)C(C)C)[C@@H](C)O)C(C)C)[C@@H](C)O)C(=O)N[C@@H](CO)C(=O)N[C@@H](CO)C(N)=O [PAD] (Ac-KWKSFLKTFK[dA]AVKTVLHTALKAISS-NH2)
Human erythrocytes
  MHC: 15.6 µg/mL
[1]; [3]
  % helix 50% TFE: 94%
[1]; [6]
  [θ]222 Benign: −3,050 deg · cm^2 · dmol^−1
[1]; [4]
  [θ]222 50% TFE: −27,300 deg · cm^2 · dmol^−1
[1]; [5]
  % helix Benign: 11%
gram-negative bacteria
  MIC (μg/ml) Gram-negative: 4.3 µg/mL (≈ 1.46 µM)

## CC[C@H](C)[C@H](NC(=O)[C@H](C)NC(=O)[C@H](CCCCN)NC(=O)[C@H](CC(C)C)NC(=O)[C@H](C)NC(=O)[C@@H](NC(=O)[C@H](Cc1c[nH]cn1)NC(=O)[C@H](CC(C)C)NC(=O)[C@@H](NC(=O)[C@@H](NC(=O)[C@H](CCCCN)NC(=O)[C@@H](NC(=O)[C@H](C)NC(=O)[C@H](CO)NC(=O)[C@H](CCCCN)NC(=O)[C@H](Cc1ccccc1)NC(=O)[C@@H](NC(=O)[C@H](CCCCN)NC(=O)[C@H](CC(C)C)NC(=O)[C@H](Cc1ccccc1)NC(=O)[C@H](CO)NC(=O)[C@H](CCCCN)NC(=O)[C@H](Cc1c[nH]c2ccccc12)NC(=O)[C@H](CCCCN)NC(C)=O)[C@@H](C)O)C(C)C)[C@@H](C)O)C(C)C)[C@@H](C)O)C(=O)N[C@@H](CO)C(=O)N[C@@H](CO)C(N)=O [Peptide V681, reference compound]
Human erythrocytes
  minimal hemolytic concentration (MHC): 15.6 µg/mL
Human erythrocytes; [2]
  MHC: 15.6 µg/mL
[1]; 5° C., 100 mM KCl, 50 mM PO4 pH 7.4
  [θ]222 Benign: −13000 deg · cm^2 · dmol^−1
[1]; 5° C., relative to D-V681 in 50% TFE
  % helix 50% TFE: 99%
[1]; 5° C., benign buffer pH 7.4 containing 50% TFE
  [θ]222 50% TFE: −27950 deg · cm^2 · dmol^−1
[1]; 5° C., pH 7.4 benign, relative to D-V681 in 50% TFE
  % helix Benign: 46%
[1]; [3]
  % helix 50% TFE: 94%
[1]; [6]
  [θ]222 Benign: −12,900 deg · cm^2 · dmol^−1
[1]; [4]
  [θ]222 50% TFE: −27,300 deg · cm^2 · dmol^−1
[1]; [5]
  % helix Benign: 45%
gram-negative bacteria
  MIC (μg/ml) Gram-negative: 8.8 µg/mL (≈ 2.97 µM)
gram-negative bacteria; geometric mean of MIC values from all 6 Gram-negative strains of Table 11
  MIC (μg/ml) GM: 5.0 µg/mL (≈ 1.69 µM)

## CC[C@H](C)[C@H](NC(=O)[C@H](C)NC(=O)[C@H](CCCCN)NC(=O)[C@H](CC(C)C)NC(=O)[C@H](C)NC(=O)[C@@H](NC(=O)[C@H](Cc1c[nH]cn1)NC(=O)[C@H](CC(C)C)NC(=O)[C@@H](NC(=O)[C@@H](NC(=O)[C@H](CCCCN)NC(=O)[C@H](NC(=O)[C@H](C)NC(=O)[C@H](CO)NC(=O)[C@H](CCCCN)NC(=O)[C@H](Cc1ccccc1)NC(=O)[C@@H](NC(=O)[C@H](CCCCN)NC(=O)[C@H](CC(C)C)NC(=O)[C@H](Cc1ccccc1)NC(=O)[C@H](CO)NC(=O)[C@H](CCCCN)NC(=O)[C@H](Cc1c[nH]c2ccccc12)NC(=O)[C@H](CCCCN)NC(C)=O)[C@@H](C)O)C(C)C)[C@@H](C)O)C(C)C)[C@@H](C)O)C(=O)N[C@@H](CO)C(=O)N[C@@H](CO)C(N)=O [NVD]
Human erythrocytes; [2]
  MHC: 62.5 µg/mL
[1]; [3]
  % helix 50% TFE: 90%
[1]; [6]
  [θ]222 Benign: −2,800 deg · cm^2 · dmol^−1
[1]; [4]
  [θ]222 50% TFE: −26,000 deg · cm^2 · dmol^−1
[1]; [5]
  % helix Benign: 10%
gram-negative bacteria
  MIC (μg/ml) Gram-negative: 3.3 µg/mL (≈ 1.11 µM)
